The values below come from patent US9346818B2 (priority 2012, dated 2016).

“Also recorded” adds a separate entry of the source. Counter-ions that a name gives are not always drawn. Like-named read-outs stand apart in the source and are kept apart here.

In one experiment the target is acetylcholinesterase (Homo sapiens (Human), UniProt P22303). The experiment in a line: biochemical. In kind it is biochemical. The conditions noted are these: for potency on acetylcholinesterase compared with positive control drug donepezil hydrochloride: in vitro, enzymology level.
Experiment [1] has as its system learning and memory disorder of mice induced by scopolamine. The experiment in a line: Morris water maze test, senile dementia mice model induced by scopolamine. The conditions noted are these: for latent period day 1 / latent period day 2 / latent period day 3 / latent period day 4 / latent period day 5 / times of crossing platform: scopolamine 1 mg/kg; for effect on learning and memory disorder of mice induced by scopolamine: Morris water maze, in comparison with model group / donepezil hydrochloride group. In kind it is in vivo.

For another experiment, the system named is malonaldehyde (MDA). As to the kind of experiment: Biochemical indicators of brain tissues (MDA assay) in scopolamine mice. The class given is in vivo. The conditions noted are these: brain tissue homogenate, 5 mg/kg. The method, then:
After the behavior test was complete, the mice were sacrificed, brain tissues were collected (operated on an ice plate) and prepared into 10% of tissue homogenate with pre-cooled physiological saline, centrifuged (3000 rpm, 10 min), and the supernatant was subjected to malonaldehyde (MDA) assay following the kits.

Experiment [2] has as its system learning and memory disorder induced by intracerebroventricular injection of Aβ1-42. As to the kind of experiment: Morris water maze test, rats with intracerebroventricular injection of Aβ1-42. In kind it is in vivo. The conditions noted are these: Aβ1-42 rats. Here is the method: The model of learning and memory disorder induced after intracerebroventricular injection of Aβ1-42 is the most common animal model for evaluating whether a compound has the effect of improving the learning and memory. […] Morris water maze test and the model of learning and memory disorder induced by intracerebroventricular injection of Aβ1-42 were employed in the present research, and the improvement effects of I-33 on learning and memory of rats at various concentration (0.7 mg/Kg, 3.5 mg/Kg, and 7 mg/Kg) were evaluated.
SD, male (220±20 g), the animals were fed in light: dark cycle (12 h/12 h) in a cleaning level of animal room, ad lib. The tests were performed after 3 days acclimation in the animal room. Aβ1-42 was formulated to 2 μg/μl according to the instruction of specification.
(1) Normal group: intracerebroventricular injection of physiological saline
(2) Model group with intracerebroventricular injection of Aβ1-42: intracerebroventricular injection of Aβ1-42
(4) I-33 (low concentration group): I-33 (0.7 mg/Kg)+intracerebroventricular injection of Aβ1-42
(5) I-33 (medium concentration group): I-33 (3.5 mg/Kg)+intracerebroventricular injection of Aβ1-42
(6) I-33 (high concentration group): I-33 (7 mg/Kg)+intracerebroventricular injection of Aβ1-42
Each rat in normal control group received intracerebroventricular injection of 5 μl of physiological saline, each rat in the other groups received intracerebroventricular injection of 5 μl of Aβ1-42. After the operation, the rats received the following tests after 1 week recovery period. […] The drugs were administered for 8 days, the training for water maze test was started on the 5th day, and the water maze test was formally started on the 9th day.

Where [3] appears, read: modified Ellman method, read-out: IC50 (nM), inhibition activity on acetylcholinesterase.
[4] abbreviates: DPH 3 mg/Kg, I-33 all dosages tested.

What is called IC50 is the concentration needed to halve the response being measured.

Sequence of acetylcholinesterase (P22303 32-614, species assumed): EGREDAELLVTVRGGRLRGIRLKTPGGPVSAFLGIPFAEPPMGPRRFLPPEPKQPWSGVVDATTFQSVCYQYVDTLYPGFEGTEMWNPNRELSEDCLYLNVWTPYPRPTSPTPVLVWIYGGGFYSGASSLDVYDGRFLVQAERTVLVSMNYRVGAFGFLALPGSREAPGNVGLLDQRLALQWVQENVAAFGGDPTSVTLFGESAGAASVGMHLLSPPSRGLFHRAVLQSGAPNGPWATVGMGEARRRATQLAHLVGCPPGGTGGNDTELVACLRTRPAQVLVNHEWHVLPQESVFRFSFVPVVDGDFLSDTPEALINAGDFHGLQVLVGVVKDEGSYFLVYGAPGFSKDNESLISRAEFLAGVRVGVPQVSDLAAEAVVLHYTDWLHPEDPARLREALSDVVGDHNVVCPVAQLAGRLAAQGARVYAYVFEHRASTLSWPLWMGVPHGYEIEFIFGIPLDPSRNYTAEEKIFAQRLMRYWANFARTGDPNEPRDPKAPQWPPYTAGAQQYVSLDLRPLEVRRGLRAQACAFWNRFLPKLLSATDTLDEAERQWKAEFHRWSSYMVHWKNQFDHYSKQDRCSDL

As to `CC1(C)c2cc3c(cc2C(=O)N1CCC1CCN(Cc2ccccc2F)CC1)OCO3` [Compound I-14, 6-[2-[1-[(2-fluorophenyl)methyl]-4-piperidyl]ethyl]-7,7-dimethyl-[1,3]dioxolo[4,5-f]isoindol-5-one], the “potency on acetylcholinesterase compared with positive control drug donepezil hydrochloride” value on acetylcholinesterase was “relative low activity”. Further, the IC50 on acetylcholinesterase (read-out: IC50 (nM), inhibition activity on acetylcholinesterase) is over 2000 nM. Also, in experiment [1] (Table 4, 5 mg/kg intragastric), the “latent period day 1” value amounted to 57.1 ± 7.6 s, the “latent period day 2” value is recorded as 60 ± 0 s, the “latent period day 3” value was found to be 60 ± 0 s and the “latent period day 4” value was 54.2 ± 8.9 s. Besides, in experiment [1] (Table 4, 5 mg/kg intragastric), the “latent period day 5” value was determined as 49.9 ± 14.7 s and the “times of crossing platform” value came to 1.3 ± 1.8. Besides, in the experiment on malonaldehyde (MDA), the “MDA(nmol/mgprot)” value was determined as 7.36 ± 1.3 nmol/mgprot.

For the compound `CC1(C)c2cc3c(cc2C(=O)N1CCC1CCN(Cc2cccc(F)c2)CC1)OCO3` [Compound I-15, 6-[2-[1-[(3-fluorophenyl)methyl]-4-piperidyl]ethyl]-7,7-dimethyl-[1,3]dioxolo[4,5-f]isoindol-5-one], on acetylcholinesterase, the “potency on acetylcholinesterase compared with positive control drug donepezil hydrochloride” value is reported as “relative low activity”. The IC50 on acetylcholinesterase (setting [3]) is over 2000 nM. In experiment [1] (Table 4, 5 mg/kg intragastric), the “latent period day 1” value worked out at 60 ± 0 s, the “latent period day 2” value stood at 58.9 ± 4.4 s, the “latent period day 3” value turned out to be 56.5 ± 8.3 s and the “latent period day 4” value is 57.8 ± 5.3 s. Further, in experiment [1] (Table 4, 5 mg/kg intragastric), the “latent period day 5” value is reported as 51.1 ± 10.9 s and the “times of crossing platform” value is listed as 1.9 ± 1.5. For the same compound, the “MDA(nmol/mgprot)” value in the experiment with malonaldehyde (MDA) came to 7.41 ± 2.1 nmol/mgprot.

On acetylcholinesterase (IC50 (nM), inhibition activity on acetylcholinesterase, modified Ellman method), `O=C1c2cc3c(cc2C2(CC2)N1CCC1CCN(Cc2ccccc2)CC1)OCO3` [Compound I-17, 6-[2-(1-benzyl-4-piperidyl)ethyl]spiro[[1,3]dioxolo[4,5-f]isoindole-7,1′-cyclopropane]-5-one] displayed an IC50 of 202 nM. The “potency on acetylcholinesterase compared with positive control drug donepezil hydrochloride” value at acetylcholinesterase is recorded as “slightly lower potency than the positive control drug; also recorded: comparable inhibition activity on acetylcholinesterase with donepezil hydrochloride”. The “effect on learning and memory disorder of mice induced by scopolamine” value (“effect on learning and memory disorder” below) in experiment [1] was “superior to the donepezil hydrochloride group; also recorded: had the effect of improving the learning and memory disorder of mice induced by scopolamine; also recorded: stronger effects of improving learning and memory”. Moreover, in experiment [1] (Table 2, 5 mg/kg intragastric), the “latent period day 1” value came to 56.8 ± 8.6 s, the “latent period day 2” value worked out at 60 ± 0 s, the “latent period day 3” value is listed as 48.7 ± 15.7 s and the “latent period day 4” value is listed as 56.7 ± 8.1 s. Also, in experiment [1] (Table 2, 5 mg/kg intragastric), the “latent period day 5” value is 47.2 ± 13.4 s and the “times of crossing platform” value is listed as 1.8 ± 2.5. Moreover, in experiment [1] (Table 6, 5 mg/kg intragastric), the “latent period day 1” value was found to be 57.3 ± 6.7 s, the “latent period day 2” value is reported as 56.3 ± 9.1 s, the “latent period day 3” value turned out to be 52.5 ± 10.4 s and the “latent period day 4” value is recorded as 46.4 ± 16.6 s. In addition, in experiment [1] (Table 6, 5 mg/kg intragastric), the “latent period day 5” value stood at 43.7 ± 11.8 s and the “times of crossing platform” value amounted to 2.00 ± 1.41. For the same compound, in experiment [1] (Table 6, 10 mg/kg intragastric), the “latent period day 1” value is 59.9 ± 0.3 s, the “latent period day 2” value is 58.1 ± 6.2 s, the “latent period day 3” value is listed as 51.1 ± 12.0 s and the “latent period day 4” value is 42.1 ± 15.5 s. Moreover, in experiment [1] (Table 6, 10 mg/kg intragastric), the “latent period day 5” value worked out at 39.3 ± 16.7 s and the “times of crossing platform” value was determined as 2.60 ± 1.96.

On to `O=C1c2cc3c(cc2C2(CC2)N1CCC1CCN(Cc2ccccc2F)CC1)OCO3` [Compound I-18, 6-[2-[1-[(2-fluorophenyl)methyl]-4-piperidyl]ethyl]spiro[[1,3]dioxolo[4,5-f]isoindole-7,1′-cyclopropane]-5-one], for which, at acetylcholinesterase, the “potency on acetylcholinesterase compared with positive control drug donepezil hydrochloride” value is given as “slightly lower potency than the positive control drug”. Also, the 50% inhibitory concentration (IC50) on acetylcholinesterase (setting [3]) stood at 154 nM. Also, in experiment [1], the “effect on learning and memory disorder” value is “can improve the learning and memory disorder of the animals induced by scopolamine”. For the same compound, in experiment [1] (Table 2, 5 mg/kg intragastric), the “latent period day 1” value is 60 ± 0 s, the “latent period day 2” value turned out to be 60 ± 0 s, the “latent period day 3” value is 53.1 ± 10.4 s and the “latent period day 4” value was found to be 56.9 ± 8.2 s. Further, in experiment [1] (Table 2, 5 mg/kg intragastric), the “latent period day 5” value came out at 56.8 ± 8.6 s and the “times of crossing platform” value is recorded as 0.5 ± 0.6. For the same compound, in experiment [1] (Table 3, 5 mg/kg intragastric), the “latent period day 1” value was determined as 55.0 ± 10.3 s, the “latent period day 2” value is 55.9 ± 9.0 s, the “latent period day 3” value is listed as 60 ± 0 s and the “latent period day 4” value was determined as 51.8 ± 15.6 s. For the same compound, in experiment [1] (Table 3, 5 mg/kg intragastric), the “latent period day 5” value came to 35.6 ± 15.4 s and the “times of crossing platform” value was determined as 1.5 ± 1.7. In experiment [1] (Table 3, 10 mg/kg intragastric), the “latent period day 1” value came out at 56.0 ± 9.9 s, the “latent period day 2” value is reported as 52.4 ± 12.4 s, the “latent period day 3” value came to 60 ± 0 s and the “latent period day 4” value worked out at 48.8 ± 15.4 s. Further, in experiment [1] (Table 3, 10 mg/kg intragastric), the “latent period day 5” value came out at 49.2 ± 15.9 s and the “times of crossing platform” value is 1.5 ± 1.2.

`O=C1c2cc3c(cc2C2(CC2)N1CCC1CCN(Cc2cccc(F)c2)CC1)OCO3` [Compound I-19, 6-[2-[1-[(3-fluorophenyl)methyl]-4-piperidyl]ethyl]spiro[[1,3]dioxolo[4,5-f]isoindole-7,1′-cyclopropane]-5-one]: at acetylcholinesterase, the “potency on acetylcholinesterase compared with positive control drug donepezil hydrochloride” value is “even lower”. Further, the IC50 on acetylcholinesterase (setting [3]) was 376 nM. For the same compound, the “effect on learning and memory disorder” value in experiment [1] was “can improve the learning and memory disorder of the animals induced by scopolamine”. Also, in experiment [1] (Table 2, 5 mg/kg intragastric), the “latent period day 1” value is given as 60 ± 0 s, the “latent period day 2” value is on record as 60 ± 0 s, the “latent period day 3” value is reported as 55.2 ± 11.8 s and the “latent period day 4” value is 57.3 ± 10.4 s. In addition, in experiment [1] (Table 2, 5 mg/kg intragastric), the “latent period day 5” value is listed as 53.9 ± 12.4 s and the “times of crossing platform” value is given as 0.8 ± 1.4.

Turning to `Cc1ccccc1CN1CCC(CCN2C(=O)c3cc4c(cc3C23CC3)OCO4)CC1` [Compound I-23, 6-[2-[1-(o-tolylmethyl)-4-piperidyl]ethyl]spiro[[1,3]dioxolo[4,5-f]isoindole-7,1′-cyclopropane]-5-one], the “potency on acetylcholinesterase compared with positive control drug donepezil hydrochloride” value on acetylcholinesterase is reported as “even lower”. For the same compound, the IC50 at acetylcholinesterase (setting [3]) stood at 959 nM. In experiment [1] (Table 4, 5 mg/kg intragastric), the “latent period day 1” value worked out at 57.8 ± 5.4 s, the “latent period day 2” value is recorded as 57.7 ± 7.1 s, the “latent period day 3” value was found to be 55.5 ± 8.8 s and the “latent period day 4” value is listed as 43.9 ± 14.1 s. Moreover, in experiment [1] (Table 4, 5 mg/kg intragastric), the “latent period day 5” value amounted to 51.8 ± 10.9 s and the “times of crossing platform” value came to 1.5 ± 1.5. The “MDA(nmol/mgprot)” value in the experiment on malonaldehyde (MDA) is 6.53 ± 2.3 nmol/mgprot.

For `COc1cc2c(cc1OC)C(=O)C(CC1CCN(Cc3ccccc3)CC1)C2` (stereo not shown) [DPH, donepezil hydrochloride, reference compound], in experiment [2] (3 mg/Kg intragastric, 8 days), the “The period of reaching the platform for the first time (latent period)” value stood at 23.94 ± 4.84 and the “times of crossing platform” value is recorded as 3.22 ± 0.55. Further, in experiment [2] (setting [4]), the “effect on period required for reaching the platform for the first time (latent period)” value was “significantly shorten the period required for reaching the platform for the first time” and the “effect on times of crossing the platform” value was “significantly increases the times of crossing the platform”.
